Measurements taken from ChEMBL document CHEMBL1147373, “Patagonicol: a diterpenoid from the Chinese soft coral Alcyonium patagonicum” (J Nat Prod, 1993).
Active and inactive are the calls of the source. No cut-off for these calls is given here.

How the values were obtained:
Candida albicans = test: Antifungal activity against Candida albicans; assay type: functional, organism-based
P388 = test: Cytotoxicity against mouse P388 cells; assay type: functional, cell-based

C=C1CC[C@H](C(C)C)[C@@H]2[C@H]1[C@H]1C[C@](C)(O)[C@@H](OCC)CC[C@@](C)(O)[C@@H]2O1 was tested, and the Activity (Candida albicans) was “inactive” and the Activity (P388) was “inactive”.
